Where two headings read alike, the source gives them in different places.
Assays:
[1] = tested on: iCell endothelial cells (human iPSC-derived ECs); experiment: High-content imaging cytotoxicity in iCell endothelial cells, 24 h; assay type: cell-based; settings: Homo sapiens, Endothelial cell, 24 hr; for viability at 0.1 µM / activity at 0.1 µM: 0.10 µM
Summary of the method: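 Readouts were vehicle-normalised and fitted to a four-parameter logistic model. POD was set at one SD beyond 0.5% DMSO control means, and 100 µM was assigned when no response was seen. Cells were monolayers of iCell endothelial cells imaged after 24 h compound exposure using nuclear, mitochondrial and calcein dyes.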

[2] = tested on: iCell endothelial cells (human iPSC-derived ECs); experiment: Tube formation (tubulogenesis) assay in iCell endothelial cells, 18 h; assay type: cell-based; settings: Homo sapiens, Endothelial cell, 18 hr; for activity at 0.1 µM: 0.10 µM
Summary of the method: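 Tube formation was measured by calcein AM imaging after overnight compound exposure (37°C, 0.5% DMSO vehicle) of human iPSC-derived ECs, 7,500/well, on reduced-growth-factor Geltrex in starvation medium. Vehicle-normalized data fitted to four-parameter logistic; POD set at one vehicle SD; without response, 100 μM taken as NOAEL.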

[3] = iPSC-EC, 0.00 µM control = 100.00, read-out: endo.cyto.24hr
[4] = iPSC-EC, 0.00 µM control = 100.00, read-out: endo.mito.24hr
[5] = iPSC-EC, 0.00 µM control = 100.00, read-out: endo.mitoint.24hr
[6] = iPSC-EC, 0.00 µM control = 100.00, read-out: endo.nma.24hr
[7] = iPSC-EC, 0.00 µM control = 100.00, read-out: endo.tc.24hrs
[8] = iPSC-EC tube formation, 0.00 µM control = 100.00, read-out: endo.mtl.18hr
[9] = iPSC-EC tube formation, 0.00 µM control = 100.00, read-out: endo.tlps.18hr
[10] = iPSC-EC tube formation, 0.00 µM control = 100.00, read-out: endo.tta.18hr
[11] = iPSC-EC tube formation, 0.00 µM control = 100.00, read-out: endo.ttl.18hr

Compound `O=C1C=CC(=O)C(c2ccc(Cl)cc2)=C1` [4-Cl-BQ, 2-(4-Chlorophenyl)benzo-2,5-quinone] has a minimal effective concentration ([1]; endothelial cells (endo), cyto, read-out: POD endo.cyto.24hr) of 3.82 µM, a minimal effective concentration ([1]; endothelial cells (endo), mito, read-out: POD endo.mito.24hr) of 3.82 µM and a minimal effective concentration ([1]; endothelial cells (endo), mitoint, read-out: POD endo.mitoint.24hr) of 14.2 µM. For the same compound, the minimal effective concentration ([1]; endothelial cells (endo), nma, read-out: POD endo.nma.24hr) was 13 µM, the minimal effective concentration ([1]; endothelial cells (endo), tc, read-out: POD endo.tc.24hr) was 2.56 µM and the viability at 0.01 µM [1, 3] was 90%. For the same compound, the activity at 0.01 µM [1, 4] was 90.5%, the activity at 0.01 µM [1, 5] was 114% and the activity at 0.01 µM [1, 6] was 105%. For the same compound, the viability at 0.01 µM [1, 7] was 90%, the viability at 0.1 µM [1, 3] was 89.7% and the activity at 0.1 µM [1, 4] was 89.9%. It also gave an activity at 0.1 µM [1, 5] of 103%, an activity at 0.1 µM [1, 6] of 104% and a viability at 0.1 µM [1, 7] of 89.7%. For the same compound, the viability at 1 µM [1, 3] was 93.1%, the activity at 1 µM [1, 4] was 93.1% and the activity at 1 µM [1, 5] was 99.3%. The activity at 1 µM [1, 6] was 103%, the viability at 1 µM [1, 7] was 93.1% and the viability at 10 µM [1, 3] was 87.8%. The activity at 10 µM [1, 4] was 87.7%, the activity at 10 µM [1, 5] was 95.2% and the activity at 10 µM [1, 6] was 102%. For the same compound, the viability at 10 µM [1, 7] was 87.8%, the viability at 100 µM [1, 3] was 12.1% and the activity at 100 µM [1, 4] was 3.06%. It also gave an activity at 100 µM [1, 5] of 30.1%, an activity at 100 µM [1, 6] of 161% and a viability at 100 µM [1, 7] of 31.3%. For the same compound, the minimal effective concentration ([1]; iPSC-EC, top concentration 100.00 µM, read-out: endo.cyto.24hr POD) was 3.82 µM, the minimal effective concentration ([1]; iPSC-EC, top concentration 100.00 µM, read-out: endo.mito.24hr POD) was 3.82 µM and the minimal effective concentration ([1]; iPSC-EC, top concentration 100.00 µM, read-out: endo.mitoint.24hr POD) was 14.2 µM. The minimal effective concentration ([1]; iPSC-EC, top concentration 100.00 µM, read-out: endo.nma.24hr POD) was 13 µM, the minimal effective concentration ([1]; iPSC-EC, top concentration 100.00 µM, read-out: endo.tc.24hrs POD) was 2.56 µM and the minimal effective concentration ([2]; endothelial cells (endo), tube formation mtl, read-out: POD endo.mtl.18hr) was 0.38 µM. For the same compound, the minimal effective concentration ([2]; endothelial cells (endo), tube formation tlps, read-out: POD endo.tlps.18hr) was 1.04 µM, the minimal effective concentration ([2]; endothelial cells (endo), tube formation tta, read-out: POD endo.tta.18hr) was 23 µM and the minimal effective concentration ([2]; endothelial cells (endo), tube formation ttl, read-out: POD endo.ttl.18hr) was 11.8 µM. For the same compound, the activity at 0.01 µM [2, 8] was 102%, the activity at 0.01 µM [2, 9] was 96% and the activity at 0.01 µM [2, 10] was 156%. The activity at 0.01 µM [2, 11] was 153%, the activity at 0.1 µM [2, 8] was 96.3% and the activity at 0.1 µM [2, 9] was 114%. It also gave an activity at 0.1 µM [2, 10] of 135%, an activity at 0.1 µM [2, 11] of 131% and an activity at 1 µM [2, 8] of 77.5%. The activity at 1 µM [2, 9] was 70.1%, the activity at 1 µM [2, 10] was 111% and the activity at 1 µM [2, 11] was 109%. The activity at 10 µM [2, 8] was 68.9%, the activity at 10 µM [2, 9] was 45% and the activity at 10 µM [2, 10] was 99.9%. For the same compound, the activity at 10 µM [2, 11] was 77.6%, the activity at 100 µM [2, 8] was 59.2% and the activity at 100 µM [2, 9] was 9.31%. The activity at 100 µM [2, 10] was 0.43%, the activity at 100 µM [2, 11] was 0.77% and the minimal effective concentration ([2]; iPSC-EC tube formation, top concentration 100.00 µM, read-out: endo.mtl.18hr POD) was 0.38 µM. The minimal effective concentration ([2]; iPSC-EC tube formation, top concentration 100.00 µM, read-out: endo.tlps.18hr POD) was 1.04 µM, the minimal effective concentration ([2]; iPSC-EC tube formation, top concentration 100.00 µM, read-out: endo.tta.18hr POD) was 23 µM and the minimal effective concentration ([2]; iPSC-EC tube formation, top concentration 100.00 µM, read-out: endo.ttl.18hr POD) was 11.8 µM.

Reference: PMC7377239, “Cardiovascular Effects of Polychlorinated Biphenyls and Their Major Metabolites” (Environmental Health Perspectives, 2020)
